Results taken from publication PMC5736936, “Xylopine Induces Oxidative Stress and Causes G2/M Phase Arrest, Triggering Caspase-Mediated Apoptosis by p53-Independent Pathway in HCT116 Cells” (Oxidative Medicine and Cellular Longevity, 2017).

Tested on: calf thymus DNA (ctDNA)
Test: DNA intercalation assay (ethidium bromide displacement)
Format: binding
Conditions: 10 or 20 μM xylopine, 15 μg/mL ctDNA, 1.5 μM ethidium bromide
Procedure: DNA intercalation was assessed by examining the ability of xylopine to displace ethidium bromide from calf thymus DNA (ctDNA, Sigma-Aldrich Co.). The assay was conducted in 96-well plates and contained 15 μg/mL ctDNA, 1.5 μM ethidium bromide, and 10 or 20 μM xylopine in 100 μL saline solution. […] Fluorescence was measured using excitation and emission wavelengths of 320 and 600 nm, respectively.

For `COc1ccc2c(c1)C[C@@H]1NCCc3cc4c(c-2c31)OCO4` [XYL, xylopine], the “displacement of ethidium bromide from ctDNA (fluorescence intensity)” value was “not able to decrease the ethidium bromide fluorescence”.
